“Also recorded” adds a separate entry of the source.
Tests used:
[1] = test system: Gi proteins (inhibition of adenylyl cyclase activity in osteoblasts); assay: cAMP accumulation assay in osteoblasts, Gpp(NH)p as agonist; type: cell-based, human; conditions: forskolin-stimulated
Experimental: The functionality of Gi proteins was assessed by investigating their ability to inhibit adenylyl cyclase activity in osteoblasts. To obtain inhibition curve of cAMP production the non-hydrolysable analogue of GTP, Gpp(NH)p (guanilyl 5′-imidophosphate, Sigma™) was added to the forskolin-containing samples in concentrations ranging from 10 nM to 100 μM. The cAMP content was determined as described above in similar assays with melatonin.
The values reported in FIG. 8 were detected after the administration of 10^−9M Gpp(NH)p, a GTP non-hydrolysable analogue.

[2] = test system: forskolin-stimulated adenylyl cyclase activity in osteoblasts; assay: cAMP accumulation assay in osteoblasts, melatonin as agonist; type: cell-based, human
Experimental: Osteoblasts from patients with AIS and control subjects were seeded in quadruplet on 24-wells plate (1×10^5 cells/well) and incubated either with the vehicle alone, dimethyl sulphoxide (DMSO, Sigma™, Oakville, ON, Canada) or the diterpene forskolin (10^−5M, Sigma™) to stimulate the cAMP formation. Inhibition curves of cAMP production were generated by adding melatonin to the forskolin-containing samples in concentrations ranging from 10^−11M to 10^−5M in a final volume of 1 ml of DMEM media with 0.5% bovine serum albumin (BSA, Sigma™). After a 30-minute incubation at 37° C., the cells were lysed and the sample centrifuged at 4° C. The cAMP content was determined in 200 μl aliquot of the supernatant using an enzyme immunoassay kit (Amersham-Pharmacia Biosciences, Mississauga, ON, Canada). All assays were performed in duplicate.
A method of screening of the present invention was performed and identified estrogen as one compound able to modulate the melatonin-signaling pathway impairment in AIS patients. Experiments were performed showing the effect of increasing concentrations of melatonin (10^−11 to 10^−5M) used as known agonist of melatonin-signaling pathway on forskolin-stimulated adenylyl cyclase activity in osteoblasts from two patients with AIS (group 3 see Table 2) treated or not with a physiological dose of estradiol (10^−10M). Results illustrated in panels A and B of FIG. 19 correspond to AIS patient numbered 13 and 29 in Table 1, respectively.

[3] = test system: Gi proteins coupled to MT1 and MT2 receptors; assay: Co-immunoprecipitation of Gi proteins coupled to melatonin receptors and their phosphorylation state; type: cell-based, human; conditions: for phosphorylated forms of Gi3 and Gi2 in MT1 or MT2 immune complexes: overnight treatment of the cells
Experimental: Co-immunoprecipitation assays were performed with anti-MT1 and anti-MT2 specific antibodies (kind gifts of Dr Debora Angeloni and Prof Franco Fraschini, University of Milan, Italy) to identify Gi proteins coupled to individual melatonin receptor in human MG-63 osteoblasts (FIG. 9).
The specific antibodies were incubated with membrane fractions purified from osteoblasts untreated and treated with melatonin (10^−9M), genistein or herbimycin (1 μM, tyrosine kinase inhibitors, Sigma™) or sodium orthovanadate, Na3VO4, (1 mM, tyrosine phosphatase inhibitor, Sigma™) for at least 16 h. Presence of coupled Gi proteins in respective immune-complexes were determined by SDS-PAGE and Western blot with specific Gi antibodies (Santa Cruz Biotechnology Inc., Santa Cruz, Calif., USA) and phosphorylation status of these coupled Gi proteins were determined using anti-phosphoserine, phosphothreonine and phosphotyrosine antibodies (Sigma™) using the same membrane after stripping. Purified recombinant Gi proteins were used as control for antibody specificity.

[4] = test system: human osteoclasts; assay: Osteoclast pit resorption assay on bone matrix; type: cell-based
Experimental: The inhibitory effect of melatonin on osteoclasts activity was performed using normal human osteoclasts derived from peripheral blood. Mel, melatonin; luz, luzindole, a specific MT2 antagonist;
Other functional assays with melatonin using osteoclasts derived from monocytes/lymphocytes fraction isolated from peripheral blood of AIS patients and control subjects are performed. Primary osteoclasts are derived from the peripheral blood of patients and non-scoliotic subjects using 10 ml of blood or less. Anticoagulant-treated blood is layered on the Ficoll-Paque™ solution and centrifuged for a short period of time. Differential migration during centrifugation results in the formation of layers containing different blood cells. Because of their lower density, the lymphocytes are found at the interface between the plasma and the Ficoll-Paque™ with other slowly sedimenting particles (platelet and monocytes). The lymphocytes are then recovered from the interface and subjected to a short washing step with a balanced salt solution to remove any platelets, Ficoll-Paque™ and plasma. The cells are then counted and seeded at high density (1×10^6 cells per cm^2) onto artificial bone or dentin matrix in α-MEM with 10% FBS and antibiotics. After a few days, cells that remain adherent will start to differentiate into osteoclasts, forming large multinucleate cells after 15-20 days.

[5] = test system: forskolin-stimulated adenylyl cyclase activity in myoblasts; assay: cAMP accumulation assay in skeletal myoblasts, melatonin as agonist; type: cell-based, human; conditions: myoblasts from AIS patients
Experimental: The functionality of melatonin signaling is assessed by investigating the ability of Gi proteins to inhibit stimulated adenylyl cyclase activity in intact skeletal myoblasts. Cells prepared from patients with AIS and control subjects are seeded in quadruplet on 24-wells plate (1×10^5 cells/well) and incubated either with dimethyl sulphoxide (DMSO, Sigma™) or forskolin (10^−5M, Sigma™) to stimulate the cAMP formation. To obtain the inhibition curve of cAMP production, melatonin is added to the forskolin-containing samples in concentrations ranging from 10^−11M to 10^−5M in a final volume of 1 ml of DMEM media with 0.5% bovine serum albumin (BSA). After a 30-minute incubation at 37° C., the cells are lysed and the sample centrifuged at 4° C. The cAMP content is determined in 200 μl aliquot of the supernatant using an enzyme immunoassay kit (Amersham-Pharmacia Biosciences).

[6] = test system: human osteoblasts; assay: Osteoblast proliferation assay ([3H]-thymidine incorporation); type: cell-based; conditions: melatonin 10^-9M
Experimental: An assay was performed to compare the proliferation of osteoblasts of normal subjects with that of scoliotic patients. […]

[7] = Bone mineral density (DEXA) in pinealectomized chicken; type: in vivo; conditions: melatonin 3 mg/kg/day ip
Experimental: Treatment with melatonin, 3 mg/kg/day ip, increased BMD in treated animals. […]

[8] = test system: MT1 receptor expression in MC3T3-E1 cells; assay: RT-PCR expression analysis of melatonin receptors; type: cell-based; conditions: melatonin 10^-7M
Experimental: RT-PCR were performed with specific primers corresponding to melatonin receptor subtypes, MT1 (panel A, FIG. 7), MT2 (panel B, FIG. 7) and OPN (panel C, FIG. 7) using 2 μg of RNA isolated every 2 h during a 24 h cycle from MC3T3-E1 cells treated (+) or not (−) with melatonin (10^−7M). […] PCR products were separated on a 1.5% agarose gel and visualized by ethidium bromide staining.

[9] = test system: osteocalcin (OC), osteopontin (OPN) and bone sialoprotein (BSP); assay: Expression analysis of osteoblast terminal differentiation markers; type: cell-based; conditions: osteoblasts in vitro
[10] = test system: scoliosis formation after pinealectomy; conditions: treatment after pinealectomy in both animal models (chicken, bipedal rats); cited from earlier work

Nc1nc2c(ncn2[C@@H]2O[C@H](COP(=O)(O)OP(=O)(O)NP(=O)(O)O)[C@@H](O)[C@H]2O)c(=O)[nH]1 [Gpp(NH)p, guanilyl 5′-imidophosphate]
inhibitory effect on cAMP levels ([1]; osteoblasts from a majority of AIS patients): no inhibitory effect
effect on cAMP levels ([1]; osteoblasts from control subjects): reduced cAMP levels

C[C@]12CC[C@@H]3c4ccc(O)cc4CC[C@H]3[C@@H]1CC[C@@H]2O [estradiol]
effect on the inhibitory effect of melatonin on forskolin-stimulated adenylyl cyclase activity ([2]; osteoblasts from two AIS patients (group 3), estradiol 10^-10M, melatonin 10^-11 to 10^-5M): further block the inhibitory effect of melatonin

O=c1c(-c2ccc(O)cc2)coc2cc(O)cc(O)c12 [genistein]
phosphorylated forms of Gi3 and Gi2 in MT1 or MT2 immune complexes [3]: completely abolished the presence of both phosphorylated forms

CC(=O)NCCc1c(Cc2ccccc2)[nH]c2ccccc12 [luzindole]
effect on the inhibition of osteoclasts resorption activity by melatonin ([4]; normal human osteoclasts, luzindole added with melatonin): prevents or reduces the inhibitory effect of melatonin

COc1ccc2[nH]cc(CCNC(C)=O)c2c1 [melatonin]
effect on cAMP accumulation ([2]; AIS group 1 osteoblasts): increased cAMP accumulation
inhibition of cAMP accumulation ([2]; AIS group 2 osteoblasts, even at 10^-7M or 10^-5M melatonin): no significant inhibition; also recorded: did not respond
response toward melatonin treatment (cAMP) ([2]; AIS group 3 osteoblasts): weak response
inhibitory effects on adenylyl cyclase activity ([2]; AIS group 3 osteoblasts, higher doses of melatonin): some significant inhibitory effects
inhibition of cAMP accumulation ([2]; AIS group 3 osteoblasts, physiological dose 10^-9M): no significant inhibition
reduction of cAMP levels (inhibition of forskolin-stimulated adenylyl cyclase activity) ([2]; osteoblasts from control subjects, forskolin 10^-5M, melatonin 10^-11M to 10^-5M, dose-dependent): 60-70%
inhibition of forskolin-stimulated adenylyl cyclase activity ([2]; osteoblasts from patients with AIS): lack of inhibition
inhibition of cAMP accumulation induced by forskolin ([5]; melatonin 10^-11 to 10^-5M, preliminary tests): incapacity of melatonin to inhibit cAMP accumulation
inhibition of cAMP accumulation induced by forskolin ([5]; supra pharmacological dose 10^-5M): able in 2 cases to inhibit cAMP accumulation
osteoblast growth rate ([3H]-thymidine incorporation) ([6]; normal osteoblasts): increases linearly
osteoblast growth rate ([3H]-thymidine incorporation) ([6]; osteoblasts from scoliotic patients): did not respond
osteoclasts resorption activity ([4]; normal human osteoclasts derived from peripheral blood, melatonin 10^-9M to 10^-7M): inhibits osteoclasts resorption activity
resorbing activity of osteoclasts ([4]; osteoclasts isolated from animals with AIS or related syndrome, reasonably predicted): does not affect resorbing activity
binding of Gi3 and Gi2 proteins to MT2 receptors ([3]; osteoblast purified membranes, in presence of melatonin): increased
phosphorylated forms of Gi3 and Gi2 in MT1 or MT2 immune complexes [3]: completely abolished the presence of both phosphorylated forms
bone mineral density (BMD) [7]: increased BMD
MT1 receptor subtype expression (RT-PCR) [8]: down regulated
expression of osteoblast terminal differentiation markers OC, OPN and BSP [9]: up-regulates
formation of scoliosis after pinealectomy [10]: prevented the formation of scoliosis
